Assay results published in patent US20250367166A1, “NEXT GENERATION DIPROVOCIMS THAT ACTIVATE THE INNATE AND ADAPTIVE IMMUNE RESPONSE” (The Scripps Research Institute, priority 2022, published 2025).
Where two headings read alike, the source gives them in different places.

Key:
TLR1/TLR2 [1] = target: TLR1/TLR2 (Mus musculus, UniProt Q9EPQ1+Q9QUN7); assay: TNF-α release from thioglycolate-elicited mouse peritoneal macrophages (ELISA); conditions: for Emax: 4 h, read-out: Efficacy (magnitude) of response versus diprovocim-1 (100%), mouse macrophages; for EC50: read-out: EC50 (nM) (mouse): EC50 TNF-α release from mouse macrophages
Chain of TLR1/TLR2 (Mus musculus, UniProt Q9EPQ1+Q9QUN7) (Q9EPQ1 26-795): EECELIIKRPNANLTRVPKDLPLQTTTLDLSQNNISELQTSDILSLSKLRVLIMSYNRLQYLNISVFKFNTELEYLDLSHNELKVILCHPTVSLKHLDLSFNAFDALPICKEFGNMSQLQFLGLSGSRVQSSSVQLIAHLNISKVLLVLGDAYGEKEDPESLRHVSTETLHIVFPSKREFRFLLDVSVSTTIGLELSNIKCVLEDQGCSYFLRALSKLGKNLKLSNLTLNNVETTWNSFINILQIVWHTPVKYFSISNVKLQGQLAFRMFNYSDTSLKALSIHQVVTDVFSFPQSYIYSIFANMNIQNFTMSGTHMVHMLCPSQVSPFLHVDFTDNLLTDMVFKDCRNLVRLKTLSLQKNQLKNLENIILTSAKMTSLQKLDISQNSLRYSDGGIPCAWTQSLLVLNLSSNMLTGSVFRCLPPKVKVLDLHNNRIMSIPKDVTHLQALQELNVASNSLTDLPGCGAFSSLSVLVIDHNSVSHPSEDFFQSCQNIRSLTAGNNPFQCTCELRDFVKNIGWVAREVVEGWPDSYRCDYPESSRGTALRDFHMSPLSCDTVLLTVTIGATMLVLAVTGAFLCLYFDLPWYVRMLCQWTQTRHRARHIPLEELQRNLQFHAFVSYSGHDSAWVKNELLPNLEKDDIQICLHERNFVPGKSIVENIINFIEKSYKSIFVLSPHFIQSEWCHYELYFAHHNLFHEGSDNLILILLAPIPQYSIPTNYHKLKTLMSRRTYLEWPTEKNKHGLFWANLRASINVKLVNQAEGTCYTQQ
Chain of TLR1/TLR2 (Mus musculus, UniProt Q9EPQ1+Q9QUN7) (Q9QUN7 25-784): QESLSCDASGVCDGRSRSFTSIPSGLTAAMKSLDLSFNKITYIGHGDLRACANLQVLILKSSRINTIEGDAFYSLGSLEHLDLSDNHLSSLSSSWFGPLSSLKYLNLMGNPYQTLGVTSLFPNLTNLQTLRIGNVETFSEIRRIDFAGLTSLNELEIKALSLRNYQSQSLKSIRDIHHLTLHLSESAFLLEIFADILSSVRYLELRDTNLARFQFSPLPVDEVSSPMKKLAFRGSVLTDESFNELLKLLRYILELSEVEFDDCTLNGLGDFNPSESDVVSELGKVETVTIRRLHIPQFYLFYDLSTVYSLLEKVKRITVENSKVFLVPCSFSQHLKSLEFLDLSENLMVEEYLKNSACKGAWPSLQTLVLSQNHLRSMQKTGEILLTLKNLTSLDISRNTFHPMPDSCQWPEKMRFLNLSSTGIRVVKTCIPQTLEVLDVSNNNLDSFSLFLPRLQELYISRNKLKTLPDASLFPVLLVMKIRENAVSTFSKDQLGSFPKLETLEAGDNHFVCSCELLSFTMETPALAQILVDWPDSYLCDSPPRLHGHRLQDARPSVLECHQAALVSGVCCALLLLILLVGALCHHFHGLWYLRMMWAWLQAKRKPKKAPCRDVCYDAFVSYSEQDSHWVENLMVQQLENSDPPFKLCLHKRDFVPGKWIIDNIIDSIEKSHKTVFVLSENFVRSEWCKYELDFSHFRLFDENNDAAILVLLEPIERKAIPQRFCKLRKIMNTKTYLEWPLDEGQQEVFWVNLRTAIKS

TLR1/TLR2 [2] = target: TLR1/TLR2 (Homo sapiens, UniProt O60603+Q15399); assay: TNF-α release from PMA-differentiated human THP-1 cells (ELISA); conditions: for Emax: THP-1, 4 h, read-out: Efficacy (magnitude) of response versus diprovocim-1 (100%), THP-1; for EC50: read-out: EC50 (nM) (THP-1): EC50 TNF-α release from human THP-1 cells;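 for all read-outs here: cells exposed to graded compound concentrations for 4 h, TNF-α quantified in supernatant, LPS as positive and DMSO as negative control, values are duplicate means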
Chain of TLR1/TLR2 (Homo sapiens, UniProt O60603+Q15399) (Q15399 25-786): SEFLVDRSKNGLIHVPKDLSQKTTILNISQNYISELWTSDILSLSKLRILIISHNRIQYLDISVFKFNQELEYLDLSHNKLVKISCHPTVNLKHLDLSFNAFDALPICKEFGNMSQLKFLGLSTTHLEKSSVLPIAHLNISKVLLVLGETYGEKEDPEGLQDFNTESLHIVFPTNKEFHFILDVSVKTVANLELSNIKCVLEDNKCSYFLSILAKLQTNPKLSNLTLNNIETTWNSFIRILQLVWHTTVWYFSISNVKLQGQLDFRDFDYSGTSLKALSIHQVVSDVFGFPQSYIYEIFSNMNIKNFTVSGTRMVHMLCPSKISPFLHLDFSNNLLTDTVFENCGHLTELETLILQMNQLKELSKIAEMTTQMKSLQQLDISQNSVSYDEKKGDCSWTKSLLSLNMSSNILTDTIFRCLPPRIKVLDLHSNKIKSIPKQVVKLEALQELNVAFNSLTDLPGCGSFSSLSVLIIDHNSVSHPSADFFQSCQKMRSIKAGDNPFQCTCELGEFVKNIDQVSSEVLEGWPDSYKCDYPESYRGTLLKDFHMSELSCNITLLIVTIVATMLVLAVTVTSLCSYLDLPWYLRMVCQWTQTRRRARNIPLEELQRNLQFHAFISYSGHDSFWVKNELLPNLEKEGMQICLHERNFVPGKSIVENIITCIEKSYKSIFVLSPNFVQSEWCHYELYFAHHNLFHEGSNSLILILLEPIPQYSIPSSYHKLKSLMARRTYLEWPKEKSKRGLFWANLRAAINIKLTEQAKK
Chain of TLR1/TLR2 (Homo sapiens, UniProt O60603+Q15399) (O60603 21-784): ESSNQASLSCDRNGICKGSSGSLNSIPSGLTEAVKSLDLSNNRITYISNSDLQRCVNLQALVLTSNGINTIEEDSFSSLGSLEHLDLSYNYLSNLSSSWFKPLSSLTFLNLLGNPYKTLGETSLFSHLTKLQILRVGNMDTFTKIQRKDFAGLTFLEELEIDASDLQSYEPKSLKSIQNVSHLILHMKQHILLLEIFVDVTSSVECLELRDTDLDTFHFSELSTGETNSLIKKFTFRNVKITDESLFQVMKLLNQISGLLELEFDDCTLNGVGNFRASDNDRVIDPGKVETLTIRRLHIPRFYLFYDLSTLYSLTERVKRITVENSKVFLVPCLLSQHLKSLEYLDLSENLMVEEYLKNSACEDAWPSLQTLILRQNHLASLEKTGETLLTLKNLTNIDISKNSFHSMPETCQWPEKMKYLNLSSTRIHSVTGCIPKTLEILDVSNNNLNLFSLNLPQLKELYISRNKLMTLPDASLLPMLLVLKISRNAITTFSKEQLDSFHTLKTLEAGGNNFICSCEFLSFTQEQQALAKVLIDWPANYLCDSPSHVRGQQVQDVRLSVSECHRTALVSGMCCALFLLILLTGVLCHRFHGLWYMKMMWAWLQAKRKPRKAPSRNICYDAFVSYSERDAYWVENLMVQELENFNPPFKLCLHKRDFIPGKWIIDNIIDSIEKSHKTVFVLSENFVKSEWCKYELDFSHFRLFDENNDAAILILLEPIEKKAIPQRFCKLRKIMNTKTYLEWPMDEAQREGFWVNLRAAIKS
Method: THP-1 (American Type Culture Collection) cells, a human monocytic leukemia cell line, were differentiated by treatment with 100 nM PMA (Sigma) in Roswell Park Memorial Institute (RPMI) cell culture medium [RPMI containing 10% vol/vol FBS (Gemini Bio Products), 1% penicillin and streptomycin (Life Technologies)] for 24 h. After that, the cells were washed with PBS and cultured in fresh RPMI cell culture medium for 24 h before use in studies. PMA-differentiated THP-1 cells were seeded onto 96-well plates at 0.5×10^5 cells per well and treated with systematically varied concentrations of the candidate compounds (dissolved in DMSO, and the final assay DMSO concentration (0.1%) was kept constant in all experiments) for 4 h. Ultra-pure LPS (dissolved in H2O, Enzo Life Sciences) was assessed alongside the compounds as a positive control and DMSO treated control was used as a negative control. Human TNF-α in the supernatants was measured by ELISA (eBioscience). This assay was used for establishing dose-response curves and measured EC50's. EC50's were calculated by Graphpad Prism. All data is the mean of duplicates and SD is within +10% of mean.

| SMILES | Emax (TLR1/TLR2 [1]) | EC50 (TLR1/TLR2 [1]; Table 3) | Emax (TLR1/TLR2 [2]) | EC50 (TLR1/TLR2 [2]; Table 3) | EC50 (TLR1/TLR2 [1]; Table 6) | EC50 (TLR1/TLR2 [2]; Table 6) | EC50 (TLR1/TLR2 [1]; Table 1) | EC50 (TLR1/TLR2 [2]; Table 1) | EC50 (TLR1/TLR2 [1]; Table 5) | EC50 (TLR1/TLR2 [2]; Table 5) |
| --- | --- | --- | --- | --- | --- | --- | --- | --- | --- | --- |
| CC(C)(C)OC(=O)NCCOCCCCCCCCCCCCNC(=O)[C@@H]1CN(C(=O)c2ccc(C(=O)N3C[C@@H](C(=O)N[C@H]4C[C@@H]4c4ccccc4)[C@H](C(=O)N[C@H]4C[C@@H]4c4ccccc4)C3)cc2)C[C@H]1C(=O)N[C@H]1C[C@@H]1c1ccccc1 [Compound 48, tert-Butyl (2-((12-((3S,4S)-1-(4-((3S,4S)-3,4-bis(((1S,2R)-2-phenylcyclopropyl)carbamoyl)-pyrrolidine-1-carbonyl)-benzoyl)-4-(((1S,2R)-2-phenylcyclopropyl)carbamoyl)pyrrolidine-3-carbox-amido)dodecyl)oxy)ethyl)carbamate] | 220% | 6.3 nM | 100% | 3 nM |  |  |  |  |  |  |
| O=C(CNC(=O)OCc1ccccc1)OCCCCCCCCCCCCNC(=O)[C@@H]1CN(C(=O)c2ccc(C(=O)N3C[C@@H](C(=O)N[C@H]4C[C@@H]4c4ccccc4)[C@H](C(=O)N[C@H]4C[C@@H]4c4ccccc4)C3)cc2)C[C@H]1C(=O)N[C@H]1C[C@@H]1c1ccccc1 [Compound 36, 12-((3S,4S)-1-(4-((3S,4S)-3,4-Bis(((1S,2R)-2-phenyl-cyclopropyl)carbamoyl)pyrrolidine-1-carbonyl)-benzoyl)-4-(((1S,2R)-2-phenylcyclopropyl)carbamoyl)-pyrrolidine-3-carboxamido)-dodecyl 2-(((benzyloxy)carbonyl)-amino)acetate] | 410% | 40 nM | 100% | 0.1 nM |  |  |  |  |  |  |
| O=C(O)CNC(=O)CCCCCCCCCCCNC(=O)[C@@H]1CN(C(=O)c2ccc(C(=O)N3C[C@@H](C(=O)N[C@H]4C[C@@H]4c4ccccc4)[C@H](C(=O)N[C@H]4C[C@@H]4c4ccccc4)C3)cc2)C[C@H]1C(=O)N[C@H]1C[C@@H]1c1ccccc1 [Compound 15, (12-((3S,4S)-1-(4-((3S,4S)-3,4-Bis(((1S,2R)-2-phenylcyclopropyl)carbamoyl)pyrrolidine-1-carbonyl)benzoyl)-4-(((1S,2R)-2-phenylcyclopropyl)carbamoyl)pyrrolidine-3-carboxamido)-dodecanoyl)glycine] | 30% |  | 110% |  |  |  | 1200 nM | 200 nM |  |  |
| CSCC[C@H](NC(=O)OC(C)(C)C)C(=O)OCCCCCCCCCCCCNC(=O)[C@@H]1CN(C(=O)c2ccc(C(=O)N3C[C@@H](C(=O)N[C@H]4C[C@@H]4c4ccccc4)[C@H](C(=O)N[C@H]4C[C@@H]4c4ccccc4)C3)cc2)C[C@H]1C(=O)N[C@H]1C[C@@H]1c1ccccc1 [Compound 67, (S)-12-((3S,4S)-1-(4-((3S,4S)-3,4-Bis(((1S,2R)-2-phenylcyclopropyl)carbamoyl)pyrrolidine-1-carbonyl)-benzoyl)-4-(((1S,2R)-2-phenylcyclopropyl)carbamoyl)-pyrrolidine-3-carboxamido)-dodecyl 2-((tert-butoxy-carbonyl)amino)-4-(methylthio)butanoate] | 150% |  | 100% |  |  |  |  |  | 44 nM | 2.8 nM |
| CC(=O)NCC(=O)OCCCCCCCCCCCCNC(=O)[C@@H]1CN(C(=O)c2ccc(C(=O)N3C[C@@H](C(=O)N[C@H]4C[C@@H]4c4ccccc4)[C@H](C(=O)N[C@H]4C[C@@H]4c4ccccc4)C3)cc2)C[C@H]1C(=O)N[C@H]1C[C@@H]1c1ccccc1 [Compound 40, 12-((3S,4S)-1-(4-((3S,4S)-3,4-Bis(((1S,2R)-2-phenyl-cyclopropyl)carbamoyl)pyrrolidine-1-carbonyl)-benzoyl)-4-(((1S,2R)-2-phenylcyclopropyl)-carbamoyl)pyrrolidine-3-carboxamido)-dodecyl 2-acetamidoacetate] | 180% | 5 nM | 90% | 0.1 nM |  |  |  |  |  |  |

Second part, led by results:

| Emax (TLR1/TLR2 [1]) | EC50 (TLR1/TLR2 [1]; Table 3) | Emax (TLR1/TLR2 [2]) | EC50 (TLR1/TLR2 [2]; Table 3) | EC50 (TLR1/TLR2 [1]; Table 6) | EC50 (TLR1/TLR2 [2]; Table 6) | EC50 (TLR1/TLR2 [1]; Table 1) | EC50 (TLR1/TLR2 [2]; Table 1) | SMILES | EC50 (TLR1/TLR2 [1]; Table 5) | EC50 (TLR1/TLR2 [2]; Table 5) |
| --- | --- | --- | --- | --- | --- | --- | --- | --- | --- | --- |
| 130% |  | 100% |  | 465 nM | 6.6 nM |  |  | CC(C)(C)OC(=O)c1ccc(C(=O)NCC(=O)OCCCCCCCCCCCCNC(=O)[C@@H]2CN(C(=O)c3ccc(C(=O)N4C[C@@H](C(=O)N[C@H]5C[C@@H]5c5ccccc5)[C@H](C(=O)N[C@H]5C[C@@H]5c5ccccc5)C4)cc3)C[C@H]2C(=O)N[C@H]2C[C@@H]2c2ccccc2)cc1 [Compound 79, tert-Butyl 4-((2-((12-((3S,4S)-1-(4-((3S,4S)-3,4-bis-(((1S,2R)-2-phenylcyclopropyl)carbamoyl)-pyrrolidine-1-carbonyl)benzoyl)-4-(((1S,2R)-2-phenylcyclopropyl)-carbamoyl)pyrrolidine-3-carboxamido)dodecyl)oxy)-2-oxoethyl)carbamoyl)benzoate] |  |  |
| 250% |  | 120% |  | 6.7 nM | 0.23 nM |  |  | O=C(CNC(=O)C(=O)O)OCCCCCCCCCCCCNC(=O)[C@@H]1CN(C(=O)c2ccc(C(=O)N3C[C@@H](C(=O)N[C@H]4C[C@@H]4c4ccccc4)[C@H](C(=O)N[C@H]4C[C@@H]4c4ccccc4)C3)cc2)C[C@H]1C(=O)N[C@H]1C[C@@H]1c1ccccc1 [Compound 84, 2-((2-((12-((3S,4S)-1-(4-((3S,4S)-3,4-Bis(((1S,2R)-2-phenylcyclopropyl)carbamoyl)pyrrolidine-1-carbonyl)benzoyl)-4-(((1S,2R)-2-phenylcyclopropyl)carbamoyl)pyrrolidine-3-carboxamido)-dodecyl)oxy)-2-oxoethyl)amino)-2-oxoacetic acid] |  |  |
| 270% | 1.8 nM | 100% | 15 nM |  |  |  |  | CC(C)(C)OC(=O)COCCCCCCCCCCCCNC(=O)[C@@H]1CN(C(=O)c2ccc(C(=O)N3C[C@@H](C(=O)N[C@H]4C[C@@H]4c4ccccc4)[C@H](C(=O)N[C@H]4C[C@@H]4c4ccccc4)C3)cc2)C[C@H]1C(=O)N[C@H]1C[C@@H]1c1ccccc1 [Compound 49, tert-Butyl 2-((12-((3S,4S)-1-(4-((3S,4S)-3,4-bis(((1S,2R)-2-phenylcyclopropyl)carbamoyl)-pyrrolidine-1-carbonyl)benzoyl)-4-(((1S,2R)-2-phenylcyclopropyl)carbamoyl)pyrrolidine-3-carboxamido)dodecyl)oxy)acetate] |  |  |
| 110% | 4.9 nM | 30% | 0.29 nM |  |  |  |  | C#CCOCC(=O)OCCCCCCCCCCCCNC(=O)[C@@H]1CN(C(=O)c2ccc(C(=O)N3C[C@@H](C(=O)N[C@H]4C[C@@H]4c4ccccc4)[C@H](C(=O)N[C@H]4C[C@@H]4c4ccccc4)C3)cc2)C[C@H]1C(=O)N[C@H]1C[C@@H]1c1ccccc1 [Compound 54, 12-((3S,4S)-1-(4-((3S,4S)-3,4-Bis(((1S,2R)-2-phenylcyclopropyl)carbamoyl)pyrrolidine-1-carbonyl)benzoyl)-4-(((1S,2R)-2-phenylcyclopropyl)-carbamoyl)pyrrolidine-3-carboxamido)dodecyl 2-(prop-2-yn-1-yloxy)acetate] |  |  |
| 220% |  | 100% |  |  |  |  |  | CC(C)(C)OC(=O)NNC(=O)OCCCCCCCCCCCCNC(=O)[C@@H]1CN(C(=O)c2ccc(C(=O)N3C[C@@H](C(=O)N[C@H]4C[C@@H]4c4ccccc4)[C@H](C(=O)N[C@H]4C[C@@H]4c4ccccc4)C3)cc2)C[C@H]1C(=O)N[C@H]1C[C@@H]1c1ccccc1 [Compound 71, 1-(12-((3S,4S)-1-(4-((3S,4S)-3,4-Bis(((1S,2R)-2-phenylcyclopropyl)carbamoyl)pyrrolidine-1-carbonyl)-benzoyl)-4-(((1S,2R)-2-phenylcyclopropyl)carbamoyl)-pyrrolidine-3-carboxamido)-dodecyl) 2-tert-butyl hydrazine-1,2-dicarboxylate] | 25 nM | 5 nM |
